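Dose response: 5 concentrations. Exposure: 48 h. Format: 96-well plates. Endpoint: linear interpolation; highest concentration if not reached. GI50 is the concentration that inhibits growth by half.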 Activity calls are given as the source filed them. No stated cut-off is given here; in the data, active = GI50 up to about 1.1 µM and inactive = higher.

Among the test systems are OVCAR-8; HT-29; SK-MEL-2; HL-60; ACHN; OVCAR-5; SW-620; NCI-H23; U-251; A498; HOP-92; NCI/ADR-RES; UACC-257; NCI-H226; NCI-H460; HCC 2998; PC-3; COLO 205; SNB-19; CCRF-CEM.
Common to all, as to assay: inhibition of tumour cell growth, NCI panel, 48 h

On to `CC1(C)CC(=O)c2c(nc3c4c([nH]c(-c5ccc([N+](=O)[O-])cc5)c24)CC(C)(C)C3)C1`, for which the GI50 was 38.3 µM (inactive) with OVCAR-8; 11.1 µM (inactive) with HT-29; 35.2 µM (inactive) in the assay on SK-MEL-2; 15.6 µM (inactive) in the assay on HL-60; 28 µM (inactive) with ACHN; 58.1 µM (inactive) with OVCAR-5. The GI50 in the assay with SW-620 is 47.4 µM (inactive); in the assay on NCI-H23 it was 48.5 µM (inactive); with U-251 it was 26.7 µM (inactive); in the assay on A498 it was 4.26 µM (inactive); with HOP-92, 19.9 µM (inactive); with NCI/ADR-RES it was 21.5 µM (inactive). In addition, the GI50 in the assay on UACC-257 was 67 µM (inactive); in the assay with NCI-H226 it was 43.8 µM (inactive); in the assay with NCI-H460, 38.5 µM (inactive); in the assay on HCC 2998, 27.5 µM (inactive); with PC-3 it was 31.7 µM (inactive); with COLO 205, 17 µM (inactive). The values for the GI50 with SNB-19 and in the assay with CCRF-CEM were 48.4 µM (inactive) and 10.1 µM (inactive), respectively.
As for `C=C[C@@](C)(/C=C/c1ccc(O)cc1)CCC=C(C)C` [BAKUCHIOL], the GI50 in the assay with OVCAR-8 is 16.9 µM (inactive); in the assay with HT-29, 16.5 µM (inactive); in the assay on SK-MEL-2, 22 µM (inactive); with HL-60, 14.1 µM (inactive); with ACHN it was 10.6 µM (inactive); with OVCAR-5, 19.2 µM (inactive). The GI50 in the assay on SW-620 was 17 µM (inactive); with NCI-H23, 16.7 µM (inactive); in the assay with U-251 it was 16.9 µM (inactive); in the assay with A498 it was 21.2 µM (inactive); in the assay with HOP-92 it was 16.5 µM (inactive); in the assay with NCI/ADR-RES, 16.2 µM (inactive). Moreover, the GI50 in the assay on UACC-257 is 17.7 µM (inactive); with NCI-H226, 19 µM (inactive); in the assay with NCI-H460, 15.6 µM (inactive); in the assay with HCC 2998, 20.6 µM (inactive); in the assay with PC-3 it was 16.8 µM (inactive); in the assay on COLO 205, 17.7 µM (inactive). In addition, the GI50 is 19.1 µM (inactive) with SNB-19 and 14.8 µM (inactive) with CCRF-CEM.
As to `CS(=O)(=O)OCCCNCCCOS(C)(=O)=O`, the GI50 in the assay with OVCAR-8 was 1650 µM (inactive); in the assay on HT-29, 1210 µM (inactive); in the assay on SK-MEL-2, 1940 µM (inactive); with HL-60 it was 201 µM (inactive); in the assay with ACHN, 392 µM (inactive); with OVCAR-5 it was 2130 µM (inactive). Also, the GI50 in the assay on SW-620 was 1140 µM (inactive); with NCI-H23, 904 µM (inactive); in the assay with U-251 it was 893 µM (inactive); in the assay on A498, 1330 µM (inactive); in the assay with HOP-92 it was 957 µM (inactive); with NCI/ADR-RES it was 1600 µM (inactive). Moreover, the GI50 was 1850 µM (inactive) in the assay on UACC-257; 1680 µM (inactive) in the assay on NCI-H226; 156 µM (inactive) in the assay on NCI-H460; 1280 µM (inactive) in the assay with HCC 2998; 1270 µM (inactive) in the assay with PC-3; 1730 µM (inactive) with COLO 205. Also, the GI50 with SNB-19 was 1270 µM (inactive); in the assay with CCRF-CEM it was 262 µM (inactive).
As to `CC(=O)[C@H]1CC[C@@H]2[C@]1(C)CC=C1[C@]23C=C[C@]2(C[C@@H](O)CC[C@]12C)C(C(=O)O)C3C(=O)O` (stereo not given in full), the GI50 in the assay with OVCAR-8, in the assay with HT-29, with SK-MEL-2, in the assay with HL-60, with ACHN and in the assay on OVCAR-5 was > 100 µM (inactive) throughout. Also, the GI50 with SW-620, in the assay with NCI-H23, with U-251, with A498, with HOP-92 and with NCI/ADR-RES was > 100 µM (inactive) in each case. Moreover, the GI50 in the assay on UACC-257, with NCI-H226, in the assay on NCI-H460, in the assay on HCC 2998, with PC-3 and in the assay on COLO 205 was > 100 µM (inactive) each time. Further, the GI50 with SNB-19 and in the assay with CCRF-CEM was > 100 µM (inactive) throughout.
Regarding `CN(C)c1cccc(/C=C(\C#N)c2ccccc2)c1`, the GI50 in the assay on OVCAR-8 was 1.01 µM (active); with HT-29 it was 0.213 µM (active); with SK-MEL-2, 0.316 µM (active); with HL-60, 0.0865 µM (active); in the assay on ACHN it was 14.4 µM (inactive); with OVCAR-5 it was 3.72 µM (inactive). Also, the GI50 in the assay on SW-620 is 0.316 µM (active); in the assay with NCI-H23, 1.44 µM (inactive); in the assay with U-251, 0.687 µM (active); in the assay on A498, 2.11 µM (inactive); in the assay on HOP-92, 2.94 µM (inactive); in the assay on NCI/ADR-RES, 0.257 µM (active). Besides, the GI50 in the assay with UACC-257 was 1.01 µM (active); in the assay with NCI-H226, 2.55 µM (inactive); in the assay with NCI-H460, 0.527 µM (active); in the assay on HCC 2998, 0.565 µM (active); with PC-3, 1.12 µM (active); in the assay with COLO 205, 0.533 µM (active). Moreover, the values for the GI50 in the assay with SNB-19 and with CCRF-CEM were 1.72 µM (inactive) and 0.794 µM (active), respectively.
With `O=C(Cc1ccccc1)Nc1nc2ccc(Cl)cc2c2nc(-c3ccco3)nn12`, the GI50 was > 57.9 µM (inactive) with OVCAR-8; > 100 µM (inactive) in the assay with HT-29; > 67.9 µM (inactive) in the assay with SK-MEL-2; > 100 µM (inactive) with HL-60; 5.02 µM (inactive) in the assay with ACHN; > 100 µM (inactive) with OVCAR-5. Also, the GI50 was > 100 µM (inactive) in the assay with SW-620; 47.1 µM (inactive) in the assay on NCI-H23; 16.8 µM (inactive) in the assay on U-251; > 60.3 µM (inactive) with A498; 2.48 µM (inactive) in the assay with HOP-92; > 41.2 µM (inactive) in the assay with NCI/ADR-RES. Also, the GI50 in the assay with UACC-257 was > 100 µM (inactive); in the assay on NCI-H226, > 35.6 µM (inactive); in the assay on NCI-H460, > 100 µM (inactive); in the assay on HCC 2998 it was > 100 µM (inactive); with PC-3, > 100 µM (inactive); in the assay with COLO 205, > 100 µM (inactive). For the same molecule, the GI50 is > 35.7 µM (inactive) in the assay on SNB-19 and > 100 µM (inactive) in the assay on CCRF-CEM.
On to `OC[P+](CO)(CO)C12CC3CC(CC(C3)C1)C2`, for which the GI50 in the assay on OVCAR-8 is > 100 µM (inactive); with HT-29, 48.5 µM (inactive); in the assay with SK-MEL-2, > 100 µM (inactive); in the assay on HL-60, 10.3 µM (inactive); with ACHN, > 100 µM (inactive); with OVCAR-5, > 100 µM (inactive). In addition, the GI50 was > 100 µM (inactive) with SW-620; > 88.3 µM (inactive) in the assay with NCI-H23; > 100 µM (inactive) in the assay on U-251; > 100 µM (inactive) in the assay with A498; > 86.9 µM (inactive) in the assay on HOP-92; > 100 µM (inactive) with NCI/ADR-RES. Moreover, the GI50 is > 100 µM (inactive) in the assay on UACC-257; > 100 µM (inactive) in the assay with NCI-H226; 76.4 µM (inactive) with NCI-H460; > 100 µM (inactive) with HCC 2998; > 100 µM (inactive) in the assay with PC-3; > 100 µM (inactive) with COLO 205. Also, the GI50 was 87.1 µM (inactive) with SNB-19 and 4.9 µM (inactive) with CCRF-CEM.
For the molecule `Oc1ccc(C(=C(Br)c2ccccc2)c2ccc(O)cc2)cc1`, the GI50 with OVCAR-8 is 6.58 µM (inactive); in the assay on HT-29, 1.91 µM (inactive); in the assay on SK-MEL-2 it was 5.74 µM (inactive); in the assay with HL-60 it was 3.39 µM (inactive); in the assay on ACHN, 9.16 µM (inactive); in the assay on OVCAR-5, 17.3 µM (inactive). The GI50 in the assay on SW-620 was 3.57 µM (inactive); in the assay with NCI-H23, 10.4 µM (inactive); with U-251, 4.51 µM (inactive); with A498, 18.3 µM (inactive); in the assay with HOP-92, 10 µM (inactive); in the assay on NCI/ADR-RES, 3.32 µM (inactive). In addition, the GI50 was 12.6 µM (inactive) in the assay with UACC-257; 15.8 µM (inactive) with NCI-H226; 11.1 µM (inactive) in the assay with NCI-H460; 8.65 µM (inactive) with HCC 2998; 7.16 µM (inactive) in the assay on PC-3; 3.73 µM (inactive) with COLO 205. In addition, the GI50 in the assay with SNB-19 is 5.15 µM (inactive); in the assay with CCRF-CEM, 7.52 µM (inactive).
Take `Clc1ccc(OCc2nnc3sc(-c4ccc(-c5ccc(Cl)cc5Cl)o4)nn23)c(Cl)c1`: the GI50 in the assay on OVCAR-8 is 17.9 µM (inactive); with HT-29, 22.7 µM (inactive); in the assay with SK-MEL-2 it was 16.3 µM (inactive); in the assay with HL-60, 28.2 µM (inactive); with ACHN, 20 µM (inactive); in the assay on OVCAR-5, 20 µM (inactive). In addition, the GI50 in the assay with SW-620 was 34.7 µM (inactive); in the assay with NCI-H23, 21.6 µM (inactive); in the assay on U-251, 19.8 µM (inactive); in the assay with A498, 17.4 µM (inactive); in the assay with HOP-92, 18.9 µM (inactive); in the assay with NCI/ADR-RES, 20 µM (inactive). Besides, the GI50 with UACC-257 was 18.4 µM (inactive); in the assay on NCI-H226, 20.4 µM (inactive); with NCI-H460, 20.4 µM (inactive); with HCC 2998, 17.9 µM (inactive); in the assay on PC-3 it was 18.1 µM (inactive); in the assay with COLO 205, 26.1 µM (inactive). Further, the results for the GI50 with SNB-19 and in the assay on CCRF-CEM were 22.1 µM (inactive) and 25.3 µM (inactive), respectively.
In the case of `CCCNC(C#N)c1ccc(C(C#N)NCCC)cc1` (stereo not given), the GI50 was 29.9 µM (inactive) in the assay with OVCAR-8; > 100 µM (inactive) with HT-29; > 100 µM (inactive) in the assay with SK-MEL-2; 40.8 µM (inactive) in the assay with HL-60; > 100 µM (inactive) in the assay on ACHN; > 100 µM (inactive) in the assay with OVCAR-5. The GI50 is > 100 µM (inactive) with SW-620; > 100 µM (inactive) with NCI-H23; > 100 µM (inactive) with U-251; > 100 µM (inactive) in the assay on A498; 45.4 µM (inactive) in the assay with HOP-92; 50.2 µM (inactive) in the assay with NCI/ADR-RES. Moreover, the GI50 was > 100 µM (inactive) with UACC-257; > 100 µM (inactive) in the assay on NCI-H226; > 100 µM (inactive) in the assay on NCI-H460; > 100 µM (inactive) with HCC 2998; > 100 µM (inactive) with PC-3; 81.3 µM (inactive) in the assay with COLO 205. The GI50 was > 100 µM (inactive) with SNB-19 and 24.4 µM (inactive) in the assay on CCRF-CEM.

Values taken from ChEMBL document CHEMBL1201862, “PubChem BioAssay data set” (2004).
